Experimental findings from patent publication US6462069B2, “Compounds, pharmaceutical compositions, and methods for inhibiting protein kinases” (Agouron Pharmaceuticals, Inc., priority 2000, dated 2002) are described below.

What all share (format): biochemical
In one assay the target is T1, CDK4/cyclin D3 complex (Homo sapiens, UniProt P11802).
T1 construct: made in house; host or cells: insect cells co-infected with baculovirus expression vectors
The assay can be described thus: Inhibition of CDK4/Cyclin D retinoblastoma kinase activity. The following applies: for Ki: apparent Ki. Here is the method: (§1) Cyclin-dependent kinase activity was measured by quantifying the enzyme-catalyzed, time-dependent incorporation of radioactive phosphate from [^32P]ATP or [^33P]ATP into a protein substrate. Unless noted otherwise, assays were performed in 96-well plates in a total volume of 50 μL, in the presence of 10 mM HEPES (N-[2-hydroxyethyl]piperazine-N′-[2-ethanesulfonic acid]) (pH 7.4). 10 mM MgCI2, 25 μM adenosine triphosphate (ATP), 1 mg/mL ovalbumin, 5 μg/mL leupeptin, 1 mM dithiothreitol, 10 mM beta-glycerophosphate, 0.1 mM sodium vanadate, 1 mM sodium fluoride, 2.5 mM ethylene glycol-bis(β-aminoethyl ethKer)-N,N,N′N′-tetraacetic acid (EGTA), 2% (v/v) dimethylsulfoxide, and 0.03-0.4 μCi [^32/33P]ATP per reaction. Reactions were initiated with enzyme, incubated at 30° C. and terminated after 20 minutes by the addition ofethylenediaminetetraacetic acid (EDTA) to 250 mM. The phosphorylated substrate was then captured on a nitrocellulose or phosphocellulose membrane using a 96-well filtration manifold, and unincorporated radioactivity was removed by repeated washing with 0.85% phosphoric acid. Radioactivity was quantified by exposing the dried membranes to a phosphorimager.
(§2) Apparent Ki values were measured by assaying enzyme activity in the presence of different inhibitor compound concentrations and subtracting the background radioactivity measured in the absence of enzyme. Inhibition data were fit to an equation for competitive inhibition using Kaleidagraph (Synergy Software), or were fit to an equation for competitive tight-binding inhibition using the software KineTic (BioKin, Ltd.).
A complex of human CDK4 and cyclin D3, or a complex of human CDK4 and genetically truncated (1-264) cyclin D3, was purified using traditional biochemical chromatographic techniques from insect cells that had been co-infected with the corresponding baculovirus expression vectors ((see e.g., Meijer and Kim, “Chemical Inhibitors of Cyclin-Dependent Kinases,” Methods in Enzymol,. vol. 283, pp. 113-128 (1997)). The enzyme complex (5 or 50 nM) was assayed with 0.3-0.5 μg of purified recombinant retinoblastoma protein fragment (Rb) as a substrate. The engineered Rb fragment (residues 386-928 of the native retinoblastoma protein; 62.3 kDa) contains the majority of the phosphorylation sites found in the native 106-kDa protein, as well as a tag of six histidine residues for ease of purification. Phosphorylated Rb substrate was captured by microfiltration on a nitrocellulose membrane and quantified using a phosphorimager as described above. For measurement of tight-binding inhibitors, the enzyme complex concentration was lowered to 5 nM, and the assay duration was extended to 60 minutes, during which the time-dependence of product formation was linear.

A further assay concerns the target T2, CDK2/cyclin A complex (Homo sapiens, UniProt P24941).
T2 construct: made in house; host or cells: CDK2: insect cells (baculovirus); cyclin A: E. coli
The assay can be described thus: Inhibition of CDK2/Cyclin A retinoblastoma kinase activity. The conditions noted are these: for Ki: apparent Ki. On the procedure:
as §1, §2
CDK2 was purified using published methodology (Rosenblatt et al., “Purification and Crystallization of Human Cyclin-dependent Kinase 2,” J. Mol. Biol., vol. 230, pp. 1317-1319 (1993)) from insect cells that had been infected with a baculovirus expression vector. […] Ki values were measured as described above.

The target in assay [1] is T3, full-length human CHK1 (FL-CHK1) (Homo sapiens, UniProt O14757).
T3 construct: C-terminally His-tagged full-length human CHK1 (FL-CHK1); made in house; host or cells: baculovirus/insect cell system
T3 sequence (O14757 1-476): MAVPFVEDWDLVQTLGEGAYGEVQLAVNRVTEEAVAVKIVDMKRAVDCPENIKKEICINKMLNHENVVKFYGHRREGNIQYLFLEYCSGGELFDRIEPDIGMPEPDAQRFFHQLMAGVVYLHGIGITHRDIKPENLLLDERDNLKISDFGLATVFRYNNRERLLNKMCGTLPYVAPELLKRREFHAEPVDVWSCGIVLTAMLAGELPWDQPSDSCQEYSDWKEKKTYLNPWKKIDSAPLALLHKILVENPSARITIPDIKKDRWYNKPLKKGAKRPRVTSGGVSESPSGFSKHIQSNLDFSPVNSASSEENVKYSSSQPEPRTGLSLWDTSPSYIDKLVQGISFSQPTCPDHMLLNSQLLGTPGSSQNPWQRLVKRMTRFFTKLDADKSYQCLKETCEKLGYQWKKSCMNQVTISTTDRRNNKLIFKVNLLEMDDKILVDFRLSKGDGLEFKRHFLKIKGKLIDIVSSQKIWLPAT
The assay can be described thus: CHK1 assay (coupled spectrophotometric). The text has this:
C-terminally His-tagged full-length human CHK1 (FL-CHK1) was expressed using the baculovirus/insect cell system. It contains 6 histidine residues (6×His-tag) at the C-terminus of the 476 amino acid human CHK1. The protein was purified by conventional chromatographic techniques.
The production of ADP from ATP that accompanies phosphoryl transfer to the synthetic substrate peptide Syntide-2 ([…]) was coupled to oxidation of NADH using phosphoenolpyruvate (PEP) through the actions of pyruvate kinase (PK) and lactic dehydrogenase (LDH). The oxidation of NADH was monitored by following the decrease of absorbance at 340 nm (∈340=6.22 cm^−1 mM^−1) using a HP8452 spectrophotometer. Typical reaction solutions contained: […] PEP; 0.15 mM NADH; 28 units of LDH/ml; 16 units of PK/ml; 3 mM DTT; 0.125 mM Syntide-2: 0.15 mM ATP; 25 mM MgCI2 in 50 mM TRIS, pH 7.5; and 400 mM NaCl. Assays were initiated with 10 nM of FL-CHK1. Ki values were determined by measuring initial enzyme activity in the presence of varying concentrations of test compounds. The data were analyzed using Enzyme Kinetic and Kaleidagraph software.

T1 sequence (P11802 whole entry): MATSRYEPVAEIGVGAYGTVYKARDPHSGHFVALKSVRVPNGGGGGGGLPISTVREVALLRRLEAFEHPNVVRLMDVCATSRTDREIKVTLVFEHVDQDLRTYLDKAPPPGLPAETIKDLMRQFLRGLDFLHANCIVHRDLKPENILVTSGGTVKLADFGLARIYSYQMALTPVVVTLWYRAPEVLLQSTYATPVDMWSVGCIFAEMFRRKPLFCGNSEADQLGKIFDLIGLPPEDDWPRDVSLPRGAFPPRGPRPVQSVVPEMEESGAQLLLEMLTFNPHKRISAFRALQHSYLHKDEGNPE
T1 sequence (P30281 whole entry partner): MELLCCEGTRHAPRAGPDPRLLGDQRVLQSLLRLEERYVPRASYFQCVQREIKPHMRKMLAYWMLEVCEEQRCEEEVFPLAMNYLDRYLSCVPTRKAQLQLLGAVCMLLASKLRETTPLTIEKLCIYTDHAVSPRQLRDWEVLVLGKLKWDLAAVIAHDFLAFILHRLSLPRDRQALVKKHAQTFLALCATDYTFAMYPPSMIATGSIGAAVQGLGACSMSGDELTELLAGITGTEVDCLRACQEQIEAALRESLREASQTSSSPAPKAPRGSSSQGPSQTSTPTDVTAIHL

Regarding `c1ccc(Nc2cc(-c3cccnc3)[nH]n2)cc1` [Compound C], the figures for the Ki (on CDK4/cyclin D3 complex; at CDK2/cyclin A complex; in assay [1]) were 59 µM, 61 µM and 1.5 µM, respectively.
`c1ccc(Nc2n[nH]c3c2-c2ccccc2C3)cc1` [Compound D, (1,8-Dihydro-indeno[2,1-c]pyrazol-3-yl)-phenyl-amine]: the values for the Ki on CDK4/cyclin D3 complex and at CDK2/cyclin A complex were 7.4 µM and 25 µM, respectively.
The like results for `Brc1cscc1-c1cc(Nc2ccccc2)n[nH]1` [Compound E, [5-(4-Bromo-thiophen-3-yl)-1H-pyrazol-3-yl]1-phenyl-amine] were, in that order, 9.7 µM and 22 µM.
Regarding `C(=C\c1cscc1-c1cc(Nc2ccccc2)n[nH]1)/c1ccccc1` [Compound F, Phenyl-[5-(4-trans-styryl-thiophen-3-yl]-1H-pyrazol-3-yl]-amine], the inhibition at 10 µM on CDK4/cyclin D3 complex (at 10 μM, read-out: Percent Inhibition CDK4/D) stood at 25%; at CDK2/cyclin A complex (at 10 μM, read-out: Percent Inhibition CDK2/A), 37%.
On to `C1=C(c2cscc2-c2cc(Nc3ccccc3)n[nH]2)CCCC1` [Compound G, [5-(4-Cyclohex-1-enyl-thiophen-3-yl)-1H-pyrazol-3-yl]-phenyl-amine], for which the Ki on CDK4/cyclin D3 complex and on CDK2/cyclin A complex was 10 µM each time.
For `c1ccc(Nc2cc(-c3cscc3C3CCCCC3)[nH]n2)cc1` [Compound H, [5-(4-Cyclohexyl-thiophen-3-yl)-1H-pyrazol-3-yl]-phenyl-amine], the Ki on CDK4/cyclin D3 complex and at CDK2/cyclin A complex was 3 µM throughout.
Take `c1ccc(Nc2cc(-c3cscc3Sc3ccccc3)[nH]n2)cc1` [Compound I, Phenyl-[5-(4-phenylsulfanyl-thiophene-3-yl)-1H-pyrazol-3-yl]-amine]: the Ki on CDK4/cyclin D3 complex came to 4.7 µM.
Consider `c1ccc(Nc2cc(-c3c[nH]c4ccccc34)[nH]n2)cc1` [Compound J, [5-(1H-Indol-3-yl)-1H-pyrazol-3-yl]-phenyl-amine], for which the Ki at CDK4/cyclin D3 complex stood at 12 µM; at CDK2/cyclin A complex, 15 µM; in assay [1] it was 18 µM.
Take `COc1ccc(Nc2cc(-c3csc4ccccc34)[nH]n2)cc1` [Compound K, (5-Benzo[b]thiophen-3-yl-1H-pyrazol-3-yl)-4-(methoxy-phenyl)-amine]: the Ki at CDK4/cyclin D3 complex amounted to 4.7 µM; on CDK2/cyclin A complex, 6.3 µM.
Take `Oc1ccc(Nc2cc(-c3csc4ccccc34)[nH]n2)cc1` [Compound L, 4-(Benzo[b]thiophen-3-yl-1H-pyrazol-3-ylamino)-phenol]: the Ki at CDK4/cyclin D3 complex came to 5.3 µM; at CDK2/cyclin A complex, 2 µM.
`COc1cccc(Nc2cc(-c3csc4ccccc34)[nH]n2)c1` [Compound M]: the Ki on CDK4/cyclin D3 complex is 4.1 µM; at CDK2/cyclin A complex, 21 µM.
The like results for `Oc1cccc(Nc2cc(-c3csc4ccccc34)[nH]n2)c1` [Compound N, 3-(Benzo[b]thiophen-3-yl-1H-pyrazol-3-ylamino)-phenol] were, in that order, 4.9 µM and 2.4 µM.
Consider `NS(=O)(=O)c1ccc(Nc2cc(-c3csc4c(Br)cccc34)[nH]n2)cc1` [Compound P, 4-[5-(7-Bromo-benzo[b]thiophen-3-yl)-1H-pyrazol-3-ylamino]-benzenesulfonamide], for which the values for the Ki at CDK4/cyclin D3 complex and on CDK2/cyclin A complex were 2.1 µM and 0.11 µM, respectively.
For `COc1cccc(-c2cccc3c(-c4cc(Nc5ccc(S(N)(=O)=O)cc5)n[nH]4)csc23)c1` [Compound Q, 4-{5-[7-(3-Methoxy-phenyl)-benzo[b]thiophen-3-yl]-1H-pyrazol-3-ylamino]-benzenesulfonamide], the inhibition at 5 µM at CDK4/cyclin D3 complex (at 5 μM, read-out: Percent Inhibition CDK4/D) is 13%; at CDK2/cyclin A complex (at 5 μM, read-out: Percent Inhibition CDK2/A) it was 21%.
With `NS(=O)(=O)c1ccc(Nc2cc(-c3csc4c(-c5cccc(O)c5)cccc34)[nH]n2)cc1` [Compound R, 4-{5-[7-(3-Hydroxy-phenyl)-benzo[b]thiophen-3-yl]-1H pyrazol-3-ylamino]-benzenesulfonamide], the Ki on CDK4/cyclin D3 complex turned out to be 3.3 µM; at CDK2/cyclin A complex, 2.7 µM. For the same compound, the inhibition at 10 µM in assay [1] (at 10 μM, read-out: Percent Inhibition CHK1) came out at 8%.
Consider `NS(=O)(=O)c1ccc(Nc2cc(-c3csc4c(-c5ccc(O)cc5)cccc34)[nH]n2)cc1` [Compound T, 4-{5-[7-(4-Hydroxy-phenyl)-benzo[b]thiophen-3-yl]-1H-pyrazol-3-ylamino]-benzenesulfonamide], for which the Ki at CDK4/cyclin D3 complex was 2.1 µM; at CDK2/cyclin A complex, 3.2 µM.
The like results for `NS(=O)(=O)c1ccc(Nc2cc(-c3csc4ccc(Br)cc34)[nH]n2)cc1` [Compound U, {5-[3-(5-Bromo)-benzo[b]Thiophenyl]-1-H-pyrazol-3-yl}-phenylamine-4-Sulfonamide] were, in that order, 2.3 µM and 0.08 µM.
Consider `COc1ccc2c(-c3cc(Nc4ccc(S(N)(=O)=O)cc4)n[nH]3)csc2c1` [Compound V, 4-[5-(6-Methoxy-benzo[b]Thiophen-3-yl)-1H-pyrazol-3-ylamino]-Benzenesulfonamide], for which the results for the Ki at CDK4/cyclin D3 complex and on CDK2/cyclin A complex were 12 µM and 0.27 µM, respectively.
Regarding `NS(=O)(=O)c1ccc(Nc2cc(-c3c[nH]c4ccccc34)[nH]n2)cc1` [Compound X, 4-[5-(1H-Indol-3-yl)-1H-pyrazol-3-ylamino]-Benzenesulfonamide], the figures for the Ki (on CDK4/cyclin D3 complex; on CDK2/cyclin A complex; in assay [1]) were 12 µM, 0.39 µM and 1.8 µM, respectively.
